# Reference: BindingDB's records for doi:10.1016/j.bmcl.2004.08.011 (Abbott Laboratories, 2004)
# Target: Protein farnesyltransferase subunit beta/geranylgeranyltransferase type-1 subunit alpha (Mus musculus, UniProt Q61239+Q8K2I1)
# Experiment: Inhibition of H-Ras transformed NIH-3T3-cell proliferation
row,Structure (SMILES),EC50 [µM]
1,N#Cc1ccc(Cn2cncc2COc2ccc(C#N)c(-c3cccc4ccccc34)c2)cc1 [4-((1-(4-cyanobenzyl)-1H-imidazol-5-yl)methoxy)-2-(naphthalen-1-yl)benzonitrile],0.0012
2,"N#Cc1ccc(COCc2cncn2Cc2ccc(C#N)nc2)c(-c2ccc3c(c2)OCO3)c1 [5-[5-(2-Benzo[1,3]dioxol-5-yl-4-cyano-benzyloxymethyl)-imidazol-1-ylmethyl]-pyridine-2-carbonitrile]",0.016
3,"N#Cc1ccc(Cn2cncc2COCc2ccc(C#N)cc2-c2ccc3c(c2)OCO3)nc1 [6-((5-((2-(benzo[d][1,3]dioxol-5-yl)-4-cyanobenzyloxy)methyl)-1H-imidazol-1-yl)methyl)nicotinonitrile]",0.029
4,N#Cc1ccc(OCc2cncn2Cc2ccc(C#N)c(-c3cccc4ccccc34)c2)nc1 [6-[3-(4-Cyano-3-naphthalen-1-yl-benzyl)-3H-imidazol-4-ylmethoxy]-nicotinonitrile],0.06

# Further lines, results first:
row,EC50 [µM],Structure (SMILES)
1,0.077,CC(=O)c1ccc(-c2cc(C#N)ccc2COCc2cncn2Cc2ccc(C#N)cc2)cc1 [4'-acetyl-6-(((1-(4-cyanobenzyl)-1H-imidazol-5-yl)methoxy)methyl)biphenyl-3-carbonitrile]
2,0.461,N#Cc1ccc(COCc2cncn2Cc2ccc(C#N)cc2-c2cccc3ccccc23)cc1 [4-[5-(4-cyano-benzyloxymethyl)-imidazol-1-ylmethyl]-3-naphthalen-1-yl-benzonitrile]
3,0.017,CCOc1cccc(-c2cc(C#N)ccc2COCc2cncn2Cc2ccc(C#N)nc2)c1 [5-((5-(((5-cyano-3'-ethoxybiphenyl-2-yl)methoxy)methyl)-1H-imidazol-1-yl)methyl)picolinonitrile]
4,0.034,CCOc1cccc(-c2cc(C#N)ccc2COCc2cncn2Cc2ccc(Cl)cc2)c1 [6-(((1-(4-chlorobenzyl)-1H-imidazol-5-yl)methoxy)methyl)-3'-ethoxybiphenyl-3-carbonitrile]
5,0.0016,N#Cc1ccc(Cn2cncc2COCc2ccc(C#N)cc2-c2ccc(C(F)(F)F)cc2)cc1 [6-(((1-(4-cyanobenzyl)-1H-imidazol-5-yl)methoxy)methyl)-4'-(trifluoromethyl)biphenyl-3-carbonitrile]
6,0.155,N#Cc1ccc(Cn2cncc2COCc2ccc(C#N)cc2-c2cccc(Cl)c2)nc1 [6-[5-(3''-Chloro-5-cyano-biphenyl-2-ylmethoxymethyl)-imidazol-1-ylmethyl]-nicotinonitrile]
